Experimental data: patent publication US11130741B2 (Bioimics AB, priority 2016, dated 2021)
Read-outs that look alike come from different tables or passages of the source.

Experiments:
[1] = tested on: Pseudomonas aeruginosa (ATCC27853); assay: microbe, parasite or virus in culture; type: cell-based; details: read-out: MIC P. aeruginosa ATCC 27853
A. baumannii ATCC 17978 = assay: MIC, A. baumannii ATCC 17978; type: cell-based; details: Acinetobacter baumannii, ATCC17978
[2] = tested on: S. aureus MRSA ATCC 33591; assay: MIC, S. aureus MRSA ATCC 33591; type: cell-based; details: Staphylococcus aureus; read-out: MIC S. aureus MRSA ATCC 33591
K. pneumoniae ATCC 43816 = assay: MIC, K. pneumoniae ATCC 43816; type: cell-based; details: Klebsiella pneumoniae, ATCC43816
[3] = tested on: Enterococcus faecalis (ATCC29212); assay: MIC, broth microdilution (CLSI), Enterococcus faecalis ATCC29212; type: cell-based; details: read-out: MIC E. faecalis ATCC 29212
S. pneumoniae ATCC 49619 = assay: MIC, S. pneumoniae ATCC 49619; type: cell-based; details: Streptococcus pneumoniae, ATCC49619
M. fortuitum ATCC 110 = assay: MIC, M. fortuitum ATCC 110; type: cell-based; details: Mycolicibacterium fortuitum, ATCC110
[4] = tested on: P. aeruginosa NTUH-974 (MDR); assay: MIC, P. aeruginosa NTUH-974 (MDR); type: cell-based; details: Pseudomonas aeruginosa; read-out: MIC P. aeruginosa NTUH-974 (MDR)
N. gonorrhoeae 612501 = assay: MIC, N. gonorrhoeae 612501; type: cell-based; details: Neisseria gonorrhoeae
[5] = tested on: S. aureus USA300 MRSA BAA 1717; assay: MIC, S. aureus USA300 MRSA BAA 1717; type: cell-based; details: Staphylococcus aureus
H. influenzae ATCC 49247 = assay: MIC, H. influenzae ATCC 49247; type: cell-based; details: Haemophilus influenzae, ATCC49247
M. phlei ATCC 11758 = assay: MIC, M. phlei ATCC 11758; type: cell-based; details: Mycolicibacterium phlei, ATCC11758
E. coli JW5503 = assay: MIC, E. coli JW5503; type: cell-based; details: Escherichia coli, JW5503, read-out: MIC E. coli JW5503
[6] = tested on: Escherichia coli (ATCC25922); assay: MIC, broth microdilution (CLSI), Escherichia coli ATCC25922
Method: Initial minimal inhibitory concentration (MIC) tests were made on two bacterial strains: • Escherichia coli (ATCC25922) • Staphylococcus aureus (ATCC25923).
Minimal Inhibitory Concentration (MIC)
MIC values were determined using the standard broth microdilution procedure based on the guidelines by the Clinical and Laboratory Standards Institute (CLSI). Briefly, the compounds were dissolved in DMSO to 10 mM. They were diluted in cation-adjusted Mueller-Hinton broth (CAMHB) to four times the highest concentration tested. A serial 2-fold dilution in CAMHB was done in microdilution plates. The inoculum of bacterial strain to be tested was prepared by making a suspension of colonies from an 18 to 24 hours old plate in CAMHB. The inoculum was diluted so that, after inoculation, each well contained approximately 5×10^5 CFU/mL. To a volume of 50 μl compound in CAMHB an equal volume of inoculum was added. The tray was sealed in a plastic bag and incubated at 35° C. for 16 to 20 hours. To aid in the detection of growth the dye resazurin was added to a final concentration 0.001% and incubated at room temperature for 1 h. Reduction of resazurin, and therefore bacterial growth, was seen as a change from blue to pink.

[7] = tested on: Staphylococcus aureus subsp. aureus (ATCC29213); assay: MIC, broth microdilution (CLSI), Staphylococcus aureus subsp. aureus ATCC29213; type: cell-based
S. aureus ATCC 29213 = assay: MIC, S. aureus ATCC 29213 + 50% HS; type: cell-based; details: Staphylococcus aureus, ATCC29213
E. faecium ATCC 700221 = assay: MIC, E. faecium ATCC 700221; type: cell-based; details: Enterococcus faecium, ATCC700221; read-out: MIC E. faecium ATCC 700221
[8] = tested on: E. coli RNase P RNA, M1 RNA; assay: Inhibition of bacterial RNase P activity, IC50 determination (cleavage of pATSerUG by M1 RNA); type: biochemical; details: NI = No inhibition
H. pylori ATCC 43504 = assay: MIC, H. pylori ATCC 43504; type: cell-based; details: Helicobacter pylori, ATCC43504
[9] = ATCC25922, read-out: E. coli MIC, Table 15, NI = No inhibition
[10] = ATCC25922, read-out: MIC E. coli ATCC 25922, Table 16
[11] = ATCC29213, Table 15, read-out: S. aureus ("wound") (MIC)
[12] = ATCC29213, Table 16, read-out: MIC S. aureus ATCC 29213

Compound	MIC [1] [µg/mL]	MIC (A. baumannii ATCC 17978) [µg/mL]	MIC [2] [µg/mL]	MIC (K. pneumoniae ATCC 43816) [µg/mL]	MIC [3] [µg/mL]	MIC (S. pneumoniae ATCC 49619) [µg/mL]	MIC (M. fortuitum ATCC 110) [µg/mL]	MIC [4] [µg/mL]	MIC (N. gonorrhoeae 612501) [µg/mL]	MIC [5] [µg/mL]	MIC (H. influenzae ATCC 49247) [µg/mL]	MIC (M. phlei ATCC 11758) [µg/mL]	MIC (E. coli JW5503) [µg/mL]	MIC [6, 9] [µg/mL]	MIC [6, 10] [µg/mL]	MIC [7, 11] [µg/mL]	MIC [7, 12] [µg/mL]	MIC (S. aureus ATCC 29213) [µg/mL]	MIC (E. faecium ATCC 700221) [µg/mL]	IC50 [8] [µM]	other results
CCN(CC)c1ccc2c(c1)Sc1cc(C(F)(F)F)cc(NC3CCN(CCN)CC3)c1N2.Cl.Cl.Cl [compound 306, N1-(1-(2-aminoethyl)piperidin-4-yl)-N7,N7-diethyl-3-(trifluoromethyl)-10H-phenothiazine-1,7-diamine hydrochloride]	32	8	2	4	4	4	4	32	2	2	8	8	2	4	4	2	2	8	2	50	MIC (H. pylori ATCC 43504): 32 µg/mL
Cl.Cl.NCCN1CCC(Nc2cc(C(F)(F)F)cc3c2Nc2ccc(N4CCCC4)cc2S3)CC1 [compound 284, N-(1-(2-aminoethyl)piperidin-4-yl)-7-(pyrrolidin-1-yl)-3-(trifluoromethyl)-10H-phenothiazin-1-amine hydrochloride]	32	8	2	4	2	8	8	32	2	2	8	4	4	8	4	2	2	32	2	0.89	MIC (H. pylori ATCC 43504): 32 µg/mL
Cl.NC1CCCC(CNc2cc(C(F)(F)F)cc3c2Nc2ccc(N4CCCC4)cc2S3)C1 (stereo not drawn) [compound 300, N-((3-aminocyclohexyl)methyl)-7-(pyrrolidin-1-yl)-3-(trifluoromethyl)-10H-phenothiazin-1-amine]	> 32	8	1	8	1	4	2	> 32	1	1	2	4	2	16	4	1	1	16	1	1.9	MIC (H. pylori ATCC 43504): 16 µg/mL
CC1(C)CCCN(c2ccc3c(c2)Sc2cc(C(F)(F)F)cc(NC4CCN(CCN)CC4)c2N3)C1.Cl.Cl [compound 305, N-(1-(2-aminoethyl)piperidin-4-yl)-7-(3,3-dimethyl-piperidin-1-yl)-3-(trifluoromethyl)-10H-phenothiazin-1-amine hydrochloride]	16	4	1	4	1	2	4	16	1	1	1	2	4	4	4	2	1	32	1	2.9	MIC (H. pylori ATCC 43504): 16 µg/mL
CC1CCN(c2ccc3c(c2)Sc2cc(C(F)(F)F)cc(NC4CCN(CCN)CC4)c2N3)CC1.Cl.Cl [compound 307, N-(1-(2-aminoethyl)piperidin-4-yl)-7-(4-methyl-piperidin-1-yl)-3-(trifluoromethyl)-10H-phenothiazin-1-amine hydrochloride]	16	8	2	4	2	8	4	16	1	2	2	8	2	4	4	2	2	32	2	16	MIC (H. pylori ATCC 43504): 16 µg/mL
CC1CCCN(c2ccc3c(c2)Sc2cc(C(F)(F)F)cc(NC4CCN(CCN)CC4)c2N3)C1.Cl.Cl (stereo not drawn) [compound 301, N-(1-(2-aminoethyl)piperidin-4-yl)-7-(3-methyl-piperidin-1-yl)-3-(trifluoromethyl)-10H-phenothiazin-1-amine hydrochloride]	16	4	2	4	2	4	4	16	1	2	2	8	2	4	4	2	4	16	2	27	MIC (H. pylori ATCC 43504): 8 µg/mL
CC1CC(C)CN(c2ccc3c(c2)Sc2cc(C(F)(F)F)cc(NC4CCN(CCN)CC4)c2N3)C1.Cl.Cl.Cl (stereo not drawn) [compound 274, N-(1-(2-aminoethyl)piperidin-4-yl)-7-(3,5-dimethyl-piperidin-1-yl)-3-(trifluoromethyl)-10H-phenothiazin-1-amine hydrochloride]	16	4	1	4	2	4	4	16	1	1	1	4	8	8	4	1	1	16	1	24	MIC (H. pylori ATCC 43504): 16 µg/mL
